Laboratory results from patent US4745101A, “Novel peptide having dentinal fluid transport-stimulating activity” (Teikoku Hormone Mfg. Co., Ltd., priority 1985, dated 1988).
Where no end group is shown, it is not given here.

Experiment: Solubility
Assay type: physicochemical
From the text: Soluble in water and physiological saline. Insoluble in acetone.

Solubility (in acetone): Insoluble
Solubility (in physiological saline): Soluble
Solubility (in water): Soluble
Sequence: GVIAWELQHNQPGRKDSTAG [Peptide of the invention]
